Data reported in a compilation of properties of binary mixtures (doi:10.1016/j.jct.2016.06.015).

Assay: xn = mol fraction of the nth substance listed
Conditions: 100 kPa

CC[n+]1ccn(C)c1.F[B-](F)(F)F + C1COCCO1
viscosity [mPa·s]
Conditions | 293.15 K | 298.15 K | 303.15 K | 313.15 K | 323.15 K | 333.15 K | 343.15 K | 353.15 K
x2 = 0 | – | 41.5 | – | 24.8 | – | 14.5 | 11.7 | 9.58
x2 = 0.1664 | 35.8 | 29.8 | – | 18.5 | 14.3 | 11.1 | 8.96 | 7.38
x2 = 0.2149 | 32.1 | – | – | – | 13 | 10.3 | 8.38 | 6.91
x2 = 0.3162 | 24.9 | 21 | 18.1 | 13.6 | 10.6 | 8.52 | 6.97 | 5.81
x2 = 0.3591 | 22.2 | 18.8 | 16.2 | 12.3 | 9.69 | – | 6.41 | 5.37
x2 = 0.5077 | 13.8 | 12 | 10.5 | 8.21 | – | – | 4.53 | 3.86
x2 = 0.5453 | 12.2 | 10.6 | – | 7.33 | – | 4.9 | 4.12 | –
x2 = 0.6708 | 7.1 | 6.42 | 5.51 | 4.48 | 3.86 | 3.11 | 2.65 | 2.3

CC[n+]1ccn(C)c1.F[B-](F)(F)F + CC#N
viscosity [mPa·s]
Conditions | x2 = 0 | x2 = 0.0797 | x2 = 0.1787 | x2 = 0.2803 | x2 = 0.3682 | x2 = 0.4903 | x2 = 0.5753 | x2 = 0.7116 | x2 = 0.8301
293.15 K | 50.5 | 37.4 | – | 18.1 | 12.3 | 7.49 | 4.83 | 2.48 | 1.21
298.15 K | 41.5 | 31.1 | 21.4 | 15.6 | 10.7 | 6.64 | 4.38 | 2.29 | –
303.15 K | 34.5 | 26.2 | 18.3 | 13.5 | 9.45 | 5.94 | 4 | 2.11 | 1.08
313.15 K | 24.8 | 19.4 | 14 | – | – | 4.85 | 3.36 | 1.82 | 0.961
323.15 K | – | 14.9 | 11 | – | – | 4.05 | 2.87 | – | 0.866
333.15 K | 14.5 | 11.8 | 8.88 | – | 5.07 | 3.44 | 2.48 | – | 0.785
343.15 K | 11.7 | 9.6 | 7.29 | 5.68 | – | 2.97 | 2.17 | – | –

C1COCCO1 + CC[n+]1ccn(C)c1.F[B-](F)(F)F
x1 = 1
Conditions | viscosity [mPa·s]
293.15 K | 1.29
298.15 K | 1.18
303.15 K | 1.09
313.15 K | 0.934
333.15 K | 0.718
353.15 K | 0.577

CC#N + CC[n+]1ccn(C)c1.F[B-](F)(F)F
x1 = 1
Conditions | viscosity [mPa·s]
293.15 K | 0.386
298.15 K | 0.37
313.15 K | 0.327
323.15 K | 0.302
333.15 K | 0.281
343.15 K | 0.262

CS(C)=O + CC[n+]1ccn(C)c1.F[B-](F)(F)F
x1 = 1
Conditions | viscosity [mPa·s]
293.15 K | 2.21
298.15 K | 2.01
303.15 K | 1.84
313.15 K | 1.56
323.15 K | 1.34
333.15 K | 1.17
343.15 K | 1.03
353.15 K | 0.917

OCCO + CC[n+]1ccn(C)c1.F[B-](F)(F)F
x1 = 1
Conditions | viscosity [mPa·s]
303.15 K | 14.3
313.15 K | 10
333.15 K | 5.33
353.15 K | 3.24

CC[n+]1ccn(C)c1.F[B-](F)(F)F + CS(C)=O
viscosity [mPa·s]
Conditions | x2 = 0 | x2 = 0.0872 | x2 = 0.2021 | x2 = 0.2931 | x2 = 0.4098 | x2 = 0.4781 | x2 = 0.5718 | x2 = 0.6689 | x2 = 0.7866 | x2 = 0.8959
293.15 K | 50.5 | 43.1 | 35.1 | 29.5 | 22.8 | – | 14.5 | 10.3 | 6.32 | 3.84
298.15 K | 41.5 | 35.5 | 29.1 | 24.6 | – | 16.1 | 12.3 | 8.84 | 5.55 | 3.43
303.15 K | 34.5 | 29.7 | 24.5 | 20.8 | 16.3 | 13.8 | 10.6 | 7.69 | – | 3.09
313.15 K | – | 21.6 | 18 | – | 12.1 | 10.4 | 8.08 | 5.98 | 3.92 | 2.52
323.15 K | 18.6 | 16.3 | 13.7 | 11.8 | 9.43 | 8.09 | 6.37 | 4.78 | 3.21 | 2.13
333.15 K | 14.5 | 12.8 | 10.8 | 9.36 | 7.53 | 6.5 | 5.15 | 3.91 | 2.68 | 1.83
343.15 K | – | 10.3 | 8.73 | – | 6.16 | 5.33 | 4.24 | 3.24 | 2.28 | –
353.15 K | 9.58 | 8.4 | 7.18 | 6.29 | 5.15 | – | 3.59 | 2.77 | 1.97 | 1.42

CC[n+]1ccn(C)c1.F[B-](F)(F)F + OCCO
viscosity [mPa·s]
Conditions | x2 = 0 | x2 = 0.099 | x2 = 0.2174 | x2 = 0.283 | x2 = 0.4435 | x2 = 0.5237 | x2 = 0.5876 | x2 = 0.6954 | x2 = 0.7916 | x2 = 0.8751
293.15 K | 50.5 | 36.8 | 26.8 | 23.4 | 18 | 16.5 | 15.8 | – | 15 | 15.8
298.15 K | 41.5 | 30.7 | 22.6 | – | – | 13.8 | 13.1 | – | 12.3 | 12.9
303.15 K | – | 25.9 | 19.3 | 16.9 | 12.9 | 11.8 | 11.1 | 10.3 | 10.3 | 10.8
313.15 K | 24.8 | 19.1 | 14.3 | 12.7 | – | 8.77 | 8.22 | 7.56 | 7.43 | 7.71
323.15 K | 18.6 | 14.6 | 11.2 | 9.9 | – | 6.81 | – | 5.77 | 5.6 | 5.74
333.15 K | 14.5 | 11.5 | 8.98 | 7.96 | – | – | 5.05 | 4.55 | 4.37 | –
343.15 K | 11.7 | 9.32 | 7.34 | 6.53 | – | 4.47 | – | 3.69 | 3.51 | 3.5
353.15 K | – | 7.69 | 6.12 | 5.47 | 4.21 | 3.75 | – | – | – | 2.85
